From patent publication US20080058405A1, “REPLICATING MELATONIN SIGNALING IN A FETUS, NEWBORN OR SUCKLING INFANT” (OREGON HEALTH & SCIENCE UNIVERSITY, priority 2006, published 2008)
Entries after “also recorded” stand apart in the source; their conditions may differ.

How the values were obtained:
[1] = adults, orally-administered melatonin; cited from earlier work
newborn infant = assay: Manipulation of the sleep/wake circadian rhythm of a newborn infant by exogenous melatonin given orally to the nursing mother (suckled or pumped breast milk); format: in vivo, human
Procedure: The following log includes nighttime sleep data of the infant taking nothing else by mouth except thrush medication during about weeks 2-4. […] All melatonin used in this Example was an immediate-release formulation taken by the […] orally.
• Sunday (10 days post-partum, first day of exogenous melatonin administration in breast milk): • At 20:50 […] took 3 mg melatonin orally. At 21:20 breast-fed baby. […] Monday: • At 19:45, […] took 1.05 mg. […] Tuesday: • At 20:30, […] took 0.9 mg and fed at 9. […] Wednesday: • At 20:45, […] took 3 mg. […] Thursday. • […] took 3 mg at 20:45. […] Week 2 Sunday. • […] took 3 mg at 20:30 but ate immediately after. […] Tuesday: • […] took 3 mg at 20:30. […] Wednesday • […] took 3 mg at 20:30. […] Friday • […] took 3 mg at 20:30. […] Saturday: • […] took 3 mg at 20:30. […] Week 3 Sunday: • […] took 3 mg at 15:00. […] Monday • […] took 3 mg at 17:20. […] Tuesday: • […] took 3 mg at 17:00. […] Wednesday: • […] took 1.8 mg at 17:45. […] Thursday: • […] took 3 mg at 17:00. […] Friday: • […] took 3 mg at 20:30. […] Saturday: • […] took 2 mg at 19:15.

[2] = same maternal dosing, infant fed by breast milk

Structure (SMILES): COc1ccc2[nH]cc(CCNC(C)=O)c2c1 [melatonin, N-acetyl-5-methoxytryptamine]
- melatonin bioavailability [1]: 1-15%
- infant sleep period after first feeding with exogenous melatonin in breast milk (newborn infant; 10 days post-partum, mother took 3 mg orally at 20:50, baby breast-fed at 21:20): slept between 22:00 and 04:00
- improvement of colic versus its worst (newborn infant; Week 5 Monday, parent took 3 mg at 17:00): about 40%
- sleep of mother and newborn (newborn infant; parent took 1.8-12 mg (usually 3 mg) in the evening, sometimes 1-2 mg in the middle of the night or 0.5 mg towards end of night, immediate-release, oral, infant fed by suckling or pumped breast milk): better sleep for both mother and newborn
- actual breast-feeding time during the night (newborn infant; [2]): no reduction
- development of the infant's independent ability to synchronize to the ambient light/dark cycle (newborn infant; [2]): appeared to accelerate development; also recorded: caused early synchronization
- evening/nighttime colic in the infant (newborn infant; [2]): less evening/nighttime colic
- weight gain in the baby (newborn infant; [2]): steady weight gain; also recorded: excellent on melatonin, better than before melatonin
